The assay concerns the target T1, NK-3 receptor (HEK293 stably expressing NK3) (Homo sapiens, UniProt P29371).
T1 construct: expressed in transfected cells
T1 sequence (P29371 1-465): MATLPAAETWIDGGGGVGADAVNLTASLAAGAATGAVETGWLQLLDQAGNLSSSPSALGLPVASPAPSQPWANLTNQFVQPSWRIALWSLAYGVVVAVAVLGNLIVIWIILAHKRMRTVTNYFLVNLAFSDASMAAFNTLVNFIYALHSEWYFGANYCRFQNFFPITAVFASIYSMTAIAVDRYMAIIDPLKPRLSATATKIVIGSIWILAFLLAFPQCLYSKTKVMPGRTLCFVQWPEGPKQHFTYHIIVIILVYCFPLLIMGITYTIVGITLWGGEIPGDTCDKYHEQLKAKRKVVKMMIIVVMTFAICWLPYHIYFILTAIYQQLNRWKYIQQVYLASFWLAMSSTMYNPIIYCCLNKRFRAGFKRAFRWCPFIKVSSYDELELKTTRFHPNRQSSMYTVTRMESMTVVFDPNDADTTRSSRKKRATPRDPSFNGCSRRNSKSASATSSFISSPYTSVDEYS
The experiment in a line: Calcium mobilization assay (FLIPR): enhancement of the Neurokinin B agonist response. The format is cell-based. The following applies: for EC50: agonist Neurokinin B with or without enhancer, Fluo-4 fluorescence, read-out: EC50 (efficacy as allosteric positive modulator of NK-3 receptor); for fold increase of the Neurokinin B agonistic effect: value in parentheses after EC50. The procedure:
Calcium mobilization assay: HEK293 stably expressing NK3 were seeded at a density of 50,000 cells into poly-D-lysine coated 96-well blackwall, clear-bottom microtiter plates (Becton Dickinson Labware, Bedford, Mass.). One day later, the medium was removed, and 100 μl loading medium [HBSS without phenol red, supplemented with 20 mM HEPES-acid, and 2 μM Fluo-4AM solubilized in 0.5 mM Pluronic F-127/DMSO (Molecular Probes, Leiden, The Netherlands)] was added. Cells were loaded for 1 h at 37° C., washed twice with 150 μl assay buffer (loading buffer without Fluo-4 AM), and then 260 μl assay buffer was added. Cells were further pre-incubated at room temperature before adding the agonist Neurokinin B with or without enhancer in 50 μl assay buffer and then measured on a T-channel fluorimetric imaging plate reader (FLIPR, Molecular Devices, Sunnyvale, Calif.). Maximum change in fluorescence over baseline was used to determine agonist response.
The efficacy as allosteric positive modulators of neurokinin 3 (NK-3) receptors is given in the table below as EC50 and fold increase of the Neurokinin B agonistic effect. The EC50 of preferred compounds is <5.0 μM.
For orientation: Calcium assays in cells follow changes in intracellular calcium, usually with a dye or a luminescent sensor.

Experimental findings from US7268154B2, “Substituted triazole compounds” (Hoffman-La Roche Inc., priority 2005, dated 2007) are described below.

For orientation: EC50 means the midpoint of the concentration-response curve. For the compound `Cc1cccc(-c2cccc(C(=O)N[C@H]3CC[C@@H](n4cc(C(=O)N5CCCC5)nn4)CC3)c2)c1` [Example 2, 3′-Methyl-biphenyl-3-carboxylic acid {cis-4-[4-(pyrrolidine-1-carbonyl)-[1,2,3]triazol-1-yl]-cyclohexyl}-amide], the EC50 was determined as 0.2 µM and the “fold increase of the Neurokinin B agonistic effect” value (“fold increase” for short) is reported as 1.5 fold.
In the case of `COc1ccccc1C(=O)N[C@H]1CC[C@@H](n2cc(C(=O)N3CCCC3)nn2)CC1` [Example 6, 2-Methoxy-N-{cis-4-[4-(pyrrolidine-1-carbonyl)-[1,2,3]triazol-1-yl]-cyclohexyl}-benzamide], the EC50 was found to be 4.2 µM and the “fold increase” value was determined as 3.2 fold.
Taken in the same sequence, the figures for `O=C(Cc1c(F)cccc1Cl)N[C@H]1CC[C@@H](n2cc(C(=O)N3CCCC3)nn2)CC1` [Example 1, 2-(2-Chloro-6-fluoro-phenyl)-N-{cis-4-[4-(pyrrolidine-1-carbonyl)-[1,2,3]triazol-1-yl]-cyclohexyl}-acetamide] were 3.7 µM and 2.3 fold.
For `O=C(Cc1c(F)cccc1Cl)N[C@H]1CC[C@@H](n2cc(C(=O)Nc3ccccc3)nn2)CC1` [Example 19, 1-{cis-4-[2-(2-Chloro-6-fluoro-phenyl)-acetylamino]-cyclohexyl}-1H-[1,2,3]triazole-4-carboxylic acid phenylamide], in that order: 1.8 µM and 1.6 fold.
For `O=C(N[C@H]1CC[C@@H](n2cc(C(=O)N3CCCC3)nn2)CC1)c1cccc(-c2ccc(F)cc2)c1` [Example 3, 4′-Fluoro-biphenyl-3-carboxylic acid {cis-4-[4-(pyrrolidine-1-carbonyl)-[1,2,3]triazol-1-yl]-cyclohexyl}-amide], in that order: 0.86 µM and 1.6 fold.
`O=C(N[C@H]1CC[C@@H](n2cc(C(=O)N3CCCC3)nn2)CC1)c1ccc(Cl)cc1` [Example 9, 4-Chloro-N-{cis-4-[4-(pyrrolidine-1-carbonyl)-[1,2,3]triazol-1-yl]-cyclohexyl}-benzamide]: the EC50 turned out to be 2.3 µM and the “fold increase” value amounted to 2.2 fold.
Taken in the same sequence, the figures for `O=C(c1cn([C@H]2CC[C@@H](NC(=O)C3(c4c(F)cccc4Cl)CCCC3)CC2)nn1)N1CCCC1` [Example 17, 1-(2-Chloro-6-fluoro-phenyl)-cyclopentanecarboxylic acid {cis-4-[4-(pyrrolidine-1-carbonyl)-[1,2,3]triazol-1-yl]-cyclohexyl}-amide] were 0.77 µM and 1.8 fold.
In the case of `Cc1cc(Cl)ccc1OC(C)C(=O)N[C@H]1CC[C@@H](n2cc(C(=O)N3CCCC3)nn2)CC1` (relative stereo) [Example 4, 2-(4-Chloro-2-methyl-phenoxy)-N-{cis-4-[4-(pyrrolidine-1-carbonyl)-[1,2,3]triazol-1-yl]-cyclohexyl}-propionamide], the EC50 came out at 0.56 µM and the “fold increase” value was 1.7 fold.
For `COc1ccc(C(=O)N[C@H]2CC[C@@H](n3cc(C(=O)N4CCCC4)nn3)CC2)cc1OC` [Example 7, 3,4-Dimethoxy-N-{cis-4-[4-(pyrrolidine-1-carbonyl)-[1,2,3]triazol-1-yl]-cyclohexyl}-benzamide], in that order: 4.5 µM and 5.6 fold.
